In patent US12398154B2, “Azaquinazoline pan-KRas inhibitors” (Mirati Therapeutics, Inc., priority 2020, dated 2025):

Key:
KRas G12R = KRas G12R (Homo sapiens, UniProt P01116, G12R); assay: biochemical;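 also: TR-FRET displacement assay of compound binding to KRas, read after one hour at room temperature, potency from a four-parameter fit of percent-of-control values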
Experimental: (§5) The ability of a compound to bind to KRas was measured using a TR-FRET displacement assay. […] After a 60-minute incubation at room temperature, the reaction was measured using a BMG LABTECH CLARIO star Plus via TR-FRET. […] The POC values were fit to a 4-parameter IC50 equation and the IC50 value reported.

KRas G12D = KRas G12D (Homo sapiens, UniProt P01116, G12D); assay: biochemical;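 also: TR-FRET displacement binding assay on KRas, read after a one-hour incubation at room temperature, IC50 fitted from percent-of-control values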
Experimental: as §5

pERK in PSN1 cells = assay: Inhibition of KRas phosphorylation of ERK (Cisbio HTRF pERK assay); settings: Homo sapiens, PSN1, 3 h, read-out: Inhibition (HTRF IC50) of KRas-mediated Phosphorylation of ERK, PSN1
[1] = system: phospho-ERK in AsPC-1 (G12D) cells; assay: Inhibition of KRas-mediated phosphorylation of ERK (in-cell western); assay type: cell-based; settings: Homo sapiens, ASPC1, 3 h, 3 hours compound, phospho-ERK normalized to GAPDH
Experimental: (§1) Diluted compounds were then added in a final concentration of 0.5% DMSO. After 3 hours, 50 μL of 4.0% formaldehyde was added and the plates incubated at room temperature for 20 minutes. The plates were then dumped and permeabilized with 150 μL of ice cold 100% methanol for 10 minutes.
(§2) The amount of phospho-ERK was determined using an antibody specific for the phosphorylated form of ERK and compared to the amount of GAPDH. […] The plates were incubated overnight at 4° C. The plates were washed 3× with 150 uL PBS+0.1% Tween 20.
(§3) The plates were washed 3× with 150 uL PBS+0.1% Tween 20. Plates were imaged dry on a Li-COR Odyssey CLX plate reader.
(§4) The phospho-ERK (Thr202/Tyr204) signal was normalized to the GAPDH signal for each well and percent of DMSO control values were calculated. IC50 values were generated using a 4-parameter fit of the dose response curve.

[2] = system: phospho-ERK in NCI-H460 (Q61H) cells; assay: as above; assay type: cell-based; settings: Homo sapiens, NCI-H460, 3 h, 3 hours compound, phospho-ERK normalized to GAPDH
Experimental: as §1, §2, §3, §4

[3] = system: phospho-ERK in NCI-H727 (G12V) cells; assay: as above; assay type: cell-based; settings: Homo sapiens, NCI-H727, 3 h, 3 hours compound, phospho-ERK normalized to GAPDH
Experimental: as §1, §2, §3, §4

pERK in MKN1 cells = assay: Inhibition of KRas phosphorylation of ERK (Cisbio HTRF pERK assay); settings: Homo sapiens, MKN-1, 3 h, read-out: Inhibition (HTRF IC50) of KRas-mediated Phosphorylation of ERK, MKN1
KRas G12V = KRas G12V (Homo sapiens, UniProt P01116, G12V); assay: biochemical;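 also: KRas binding measured by TR-FRET displacement at room temperature, IC50 fitted from percent of control values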
Sequence of KRas G12V (P01116 1-169 isoform P01116-2 G12V): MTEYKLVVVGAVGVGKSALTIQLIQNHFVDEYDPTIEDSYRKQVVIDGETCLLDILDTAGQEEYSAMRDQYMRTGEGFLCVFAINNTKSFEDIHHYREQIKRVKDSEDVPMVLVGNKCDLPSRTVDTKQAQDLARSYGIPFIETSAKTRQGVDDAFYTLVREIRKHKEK
Experimental: as §5

Sequence of KRas G12R (P01116 1-169 isoform P01116-2 G12R): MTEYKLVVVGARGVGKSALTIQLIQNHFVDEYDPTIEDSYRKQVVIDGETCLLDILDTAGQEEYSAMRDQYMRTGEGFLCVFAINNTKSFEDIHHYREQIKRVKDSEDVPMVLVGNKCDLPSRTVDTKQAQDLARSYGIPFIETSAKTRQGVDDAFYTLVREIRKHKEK
Sequence of KRas G12D (P01116 1-169 isoform P01116-2 G12D): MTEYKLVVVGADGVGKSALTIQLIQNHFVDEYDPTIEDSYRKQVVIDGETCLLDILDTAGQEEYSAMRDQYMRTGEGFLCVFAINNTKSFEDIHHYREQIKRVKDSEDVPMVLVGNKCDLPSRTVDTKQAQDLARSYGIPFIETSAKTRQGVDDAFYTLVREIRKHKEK

| Compound | IC50 (KRas G12R) | IC50 (KRas G12D) | IC50 (pERK in PSN1 cells) | IC50 (pERK in MKN1 cells) | IC50 (KRas G12V) | IC50 [1] | IC50 [2] | IC50 [3] |
| --- | --- | --- | --- | --- | --- | --- | --- | --- |
| CCc1c(F)ccc2cc(O)cc(-c3ncc4c(NCc5n[nH]cc5C(N)=O)nc(OC[C@@]56CCCN5C[C@H](F)C6)nc4c3F)c12 [Example 162] | 3 nM | 31 nM | ≥ 10000 nM | 187 nM | ≤ 2 nM | 4530 nM | 6770 nM | 4170 nM |
| CCc1c(F)ccc2cc(O)cc(-c3ncc4c(NC56CC(CO)(C5)C6)nc(OC[C@@]56CCCN5C[C@H](F)C6)nc4c3F)c12 [Example 167, 5-ethyl-6-fluoro-4-(8-fluoro-2-(((2R,7aS)-2-fluorohexahydro-1H-pyrrolizin-7a-yl)methoxy)-4-((3-(hydroxymethyl)bicyclo[1.1.1]pentan-1-yl)amino)pyrido[4,3-d]pyrimidin-7-yl) naphthalen-2-ol] | ≤ 2 nM | 16 nM | ≥ 10000 nM | 3 nM | ≤ 2 nM | 6760 nM | 623 nM | 1250 nM |
| CCc1c(F)ccc2cc(O)cc(-c3ncc4c(NCCc5c[nH]nn5)nc(OC[C@@]56CCCN5C[C@H](F)C6)nc4c3F)c12 [Example 169, 4-(4-((2-(1H-1,2,3-triazol-4-yl)ethyl)amino)-8-fluoro-2-(((2R,7aS)-2-fluorohexahydro-1H-pyrrolizin-7a-yl)methoxy)pyrido[4,3-d]pyrimidin-7-yl)-5-ethyl-6-fluoronaphthalen-2-ol] | ≤ 2 nM | 4 nM | ≥ 10000 nM | 100 nM | ≤ 2 nM | 2890 nM | 931 nM | 1810 nM |
| CCc1c(F)ccc2cc(O)cc(-c3ncc4c(NCc5ccc6nonc6c5)nc(OC[C@@]56CCCN5C[C@H](F)C6)nc4c3F)c12 [Example 175, 4-(4-((benzo[c][1,2,5]oxadiazol-5-ylmethyl)amino)-8-fluoro-2-(((2R,7aS)-2-fluorohexahydro-1H-pyrrolizin-7a-yl)methoxy)pyrido[4,3-d]pyrimidin-7-yl)-5-ethyl-6-fluoronaphthalen-2-ol] | ≤ 2 nM | 38 nM | ≥ 10000 nM | 39 nM | ≤ 2 nM | 1720 nM | 675 nM | 756 nM |
| CCc1c(F)ccc2cc(O)cc(-c3ncc4c(N5C[C@H](O)C[C@@H](F)C5)nc(OC[C@@]56CCCN5C[C@H](F)C6)nc4c3F)c12 [Example 178] | 14 nM | 18 nM | ≥ 10000 nM | 49 nM | 7 nM | 606 nM | 728 nM | 2110 nM |
| CCc1c(F)ccc2cc(O)cc(-c3ncc4c(N5CC[C@H](F)[C@@H](O)C5)nc(OC[C@@]56CCCN5C[C@H](F)C6)nc4c3F)c12 [Example 179] | – | – | 6960 nM | 10 nM | – | 785 nM | 274 nM | 675 nM |
| CCc1c(F)ccc2cc(O)cc(-c3ncc4c(N5C[C@@H](C)C[C@@H](O)C5)nc(OC[C@@]56CCCN5C[C@H](F)C6)nc4c3F)c12 [Example 180] | 4 nM | 4 nM | 6900 nM | 10 nM | ≤ 2 nM | 205 nM | 113 nM | 623 nM |
| CCc1c(F)ccc2cc(O)cc(-c3ncc4c(N5C[C@H](O)CC[C@H]5C)nc(OC[C@@]56CCCN5C[C@H](F)C6)nc4c3F)c12 [Example 182] | – | – | 6900 nM | 5 nM | – | 547 nM | 157 nM | 355 nM |
| CCc1c(F)ccc2cc(O)cc(-c3ncc4c(N5C[C@H](O)CC[C@@H]5C)nc(OC[C@@]56CCCN5C[C@H](F)C6)nc4c3F)c12 [Example 186] | – | – | ≥ 10000 nM | 108 nM | – | 1590 nM | 592 nM | 1060 nM |
| CCc1c(F)ccc2cc(O)cc(-c3ncc4c(N5C[C@H](C)C[C@@H](O)C5)nc(OC[C@@]56CCCN5C[C@H](F)C6)nc4c3F)c12 [Example 187] | 6 nM | 12 nM | ≥ 10000 nM | 38 nM | 5 nM | 470 nM | 133 nM | 550 nM |
| CCc1c(F)ccc2cc(O)cc(-c3ncc4c(N5CCC[C@@]6(CNC(=O)C6)C5)nc(OC[C@]56CCCN5C[C@@H](O)C6)nc4c3F)c12 [Example 305, (R)-7-(7-(8-ethyl-7-fluoro-3-hydroxynaphthalen-1-yl)-8-fluoro-2-(((2S,7aR)-2-hydroxytetrahydro-1H-pyrrolizin-7a(5H)-yl)methoxy)pyrido[4,3-d]pyrimidin-4-yl)-2,7-diazaspiro[4.5]decan-3-one] | 14 nM | 25 nM | – | – | 6 nM | ≥ 10000 nM | ≥ 10000 nM | ≥ 10000 nM |
| CCc1c(F)ccc2cc(O)cc(-c3ncc4c(N5CCCC(CO)C5)nc(OC[C@@]56CCCN5C[C@H](F)C6)nc4c3F)c12 (stereo partly drawn) [Example 306, 5-ethyl-6-fluoro-4-(8-fluoro-2-(((2R,7aS)-2-fluorohexahydro-1H-pyrrolizin-7a-yl)methoxy)-4-(3-(hydroxymethyl)piperidin-1-yl)pyrido[4,3-d]pyrimidin-7-yl)naphthalen-2-ol] | – | – | 6800 nM | 57 nM | – | 405 nM | 306 nM | 461 nM |
| CCc1c(F)ccc2cc(O)cc(-c3ncc4c(NC5CN(C(N)=O)C5)nc(OC[C@@]56CCCN5C[C@H](F)C6)nc4c3F)c12 [Example 310, 3-((7-(8-ethyl-7-fluoro-3-hydroxynaphthalen-1-yl)-8-fluoro-2-(((2R,7aS)-2-fluorohexahydro-1H-pyrrolizin-7a-yl)methoxy)pyrido[4,3-d]pyrimidin-4-yl)amino)azetidine-1-carboxamide] | ≤ 2 nM | 8 nM | – | – | ≤ 2 nM | ≥ 10000 nM | 3790 nM | 3370 nM |

Further lines, with some results ahead:

| IC50 (KRas G12R) | IC50 (KRas G12D) | IC50 (pERK in PSN1 cells) | IC50 (pERK in MKN1 cells) | IC50 (KRas G12V) | Compound | IC50 [1] | IC50 [2] | IC50 [3] |
| --- | --- | --- | --- | --- | --- | --- | --- | --- |
| 6 nM | 7 nM | 2880 nM | 44 nM | 5 nM | C#Cc1c(F)ccc2cc(O)cc(-c3ncc4c(N5CCOC[C@](C)(O)C5)nc(OC[C@@]56CCCN5C[C@H](F)C6)nc4c3F)c12 (single isomer, unassigned) [Example 386] | 1180 nM | 299 nM | 1020 nM |
| ≤ 2 nM | 3 nM | 2880 nM | 6 nM | ≤ 2 nM | Oc1cc(-c2ncc3c(N4CCC[C@]5(C4)C[C@H](O)C5)nc(OC[C@@]45CCCN4C[C@H](F)C5)nc3c2F)c2c(F)c(F)ccc2c1 (single isomer, unassigned) [Example 441] | 119 nM | 70 nM | 139 nM |
| ≤ 2 nM | ≤ 2 nM | 2850 nM | 9 nM | ≤ 2 nM | Oc1cc(-c2ncc3c(N4CCC[C@]5(C4)C[C@@H](O)C5)nc(OC[C@@]45CCCN4C[C@H](F)C5)nc3c2F)c2c(F)c(F)ccc2c1 (single isomer, unassigned) [Example 442] | 134 nM | 124 nM | 234 nM |
| 10 nM | 29 nM | 6700 nM | 139 nM | 17 nM | CCc1c(F)ccc2cc(O)cc(-c3ncc4c(N5CCC[C@@H](O)[C@H]5C)nc(OC[C@@]56CCCN5C[C@H](F)C6)nc4c3F)c12 [Example 181] | 1540 nM | 584 nM | 1610 nM |
| – | – | 4230 nM | 2 nM | – | CCc1c(F)ccc2cc(O)cc(-c3ncc4c(N5CCCC(O)(C(F)(F)F)C5)nc(OC[C@@]56CCCN5C[C@H](F)C6)nc4c3F)c12 (some centres unmarked) [Example 183] | 399 nM | 137 nM | 720 nM |
| 9 nM | 11 nM | 4840 nM | 17 nM | 9 nM | CCc1c(F)ccc2cc(O)cc(-c3ncc4c(N5CCC[C@@H](O)[C@@H]5C)nc(OC[C@@]56CCCN5C[C@H](F)C6)nc4c3F)c12 [Example 185] | 306 nM | 424 nM | 481 nM |
| ≤ 2 nM | – | 4990 nM | 11 nM | ≤ 2 nM | CCc1c(F)ccc2cc(O)cc(-c3ncc4c(N5CC(O)CC(F)(F)C5)nc(OC[C@@]56CCCN5C[C@H](F)C6)nc4c3F)c12 (some centres unmarked) [Example 190] | 189 nM | 62 nM | 272 nM |
